Molecules are shown by their SMILES. Numbers after ± are expanded uncertainties.

The results in this text go back to the NIST ThermoML archive (doi:10.1021/je050273f).

The data set in a line: molar heat capacity at saturation pressure. Conditions: Liquid, Large sample (1 g) DSC.

On to `CC(C)Cc1ccccc1` [(2-methylpropyl)benzene], for which the molar heat capacity amounted to 259.1 ± 5.2 J/K/mol (332.2 K); 263.5 ± 5.3 J/K/mol (342.1 K); 268.8 ± 5.4 J/K/mol (354.9 K); 273.9 ± 5.5 J/K/mol (361.8 K); 278.6 ± 5.6 J/K/mol (371.6 K); 283 ± 5.7 J/K/mol (381.5 K). Further, the molar heat capacity (391.4 K) stood at 289.1 ± 5.8 J/K/mol and the molar heat capacity (401.3 K) was determined as 293.8 ± 5.9 J/K/mol.

`CCCCc1ccccc1` [butylbenzene]: the molar heat capacity runs as follows: (332.2 K) 259.1 ± 5.2 J/K/mol; (342.1 K) 263 ± 5.3 J/K/mol; (354.9 K) 267.8 ± 5.4 J/K/mol; (361.8 K) 272.9 ± 5.5 J/K/mol; (371.6 K) 277.6 ± 5.6 J/K/mol; (381.5 K) 283.9 ± 5.7 J/K/mol. The molar heat capacity was 288 ± 5.8 J/K/mol (391.4 K) and 293.9 ± 5.9 J/K/mol (401.3 K).

With `CCCc1ccccc1` [propylbenzene], the molar heat capacity worked out at 227.4 ± 4.5 J/K/mol (332.2 K); 231.4 ± 4.6 J/K/mol (342.1 K); 235.8 ± 4.7 J/K/mol (354.9 K); 240.1 ± 4.8 J/K/mol (361.8 K); 244.6 ± 4.9 J/K/mol (371.6 K); 249.3 ± 5 J/K/mol (381.5 K). Under “391.4 K”, the molar heat capacity was 252 ± 5 J/K/mol.

Consider `Cc1cccc(C)c1` [1,3-dimethylbenzene], for which the molar heat capacity reads like this: (332.2 K) 193.6 ± 3.9 J/K/mol; (342.1 K) 197.6 ± 4 J/K/mol; (354.9 K) 201.7 ± 4 J/K/mol; (361.8 K) 205.7 ± 4.1 J/K/mol; (371.6 K) 209.4 ± 4.2 J/K/mol; (381.5 K) 213.6 ± 4.3 J/K/mol. The molar heat capacity is, setting by setting: (391.4 K) 217.4 ± 4.3 J/K/mol; (401.3 K) 221.7 ± 4.4 J/K/mol.

`CCCCCCCc1ccccc1` [heptylbenzene]: the molar heat capacity runs as follows: (332.2 K) 353.6 ± 7.1 J/K/mol; (342.1 K) 359.6 ± 7.2 J/K/mol; (354.9 K) 364.9 ± 7.3 J/K/mol; (361.8 K) 371.5 ± 7.4 J/K/mol; (371.6 K) 377.2 ± 7.5 J/K/mol; (381.5 K) 384.3 ± 7.7 J/K/mol. Also, the molar heat capacity (391.4 K) is recorded as 389.9 ± 7.8 J/K/mol and the molar heat capacity (401.3 K) amounted to 396.5 ± 7.9 J/K/mol.

In the case of `CCC(C)c1ccccc1` (stereo unspecified) [(1-methylpropyl)benzene], the molar heat capacity runs as follows: (332.2 K) 258.5 ± 5.2 J/K/mol; (342.1 K) 262.6 ± 5.3 J/K/mol; (354.9 K) 267.9 ± 5.4 J/K/mol; (361.8 K) 272.5 ± 5.5 J/K/mol; (371.6 K) 277.5 ± 5.6 J/K/mol; (381.5 K) 282.4 ± 5.6 J/K/mol. Also, the molar heat capacity is, setting by setting: (391.4 K) 287.3 ± 5.7 J/K/mol; (401.3 K) 292.1 ± 5.8 J/K/mol.

As to `CC(C)c1ccccc1` [isopropylbenzene], the molar heat capacity is recorded as 229.1 ± 4.6 J/K/mol (332.2 K); 234.2 ± 4.7 J/K/mol (342.1 K); 238.5 ± 4.8 J/K/mol (354.9 K); 242.5 ± 4.9 J/K/mol (361.8 K); 246.7 ± 4.9 J/K/mol (371.6 K); 251.1 ± 5 J/K/mol (381.5 K). For the same compound, the molar heat capacity (391.4 K) was 255.2 ± 5.1 J/K/mol and the molar heat capacity (401.3 K) amounted to 259.5 ± 5.2 J/K/mol.

For the compound `CCCCCCCCCCCCCCCCc1ccccc1` [hexadecylbenzene], the molar heat capacity (332.2 K) is listed as 640 ± 13 J/K/mol; the molar heat capacity (342.1 K) is listed as 651.3 ± 13 J/K/mol; the molar heat capacity (354.9 K) worked out at 662 ± 13 J/K/mol; the molar heat capacity (361.8 K) is given as 671.9 ± 13 J/K/mol; the molar heat capacity (371.6 K) was 683.3 ± 14 J/K/mol; the molar heat capacity (381.5 K) is 695.3 ± 14 J/K/mol. Further, the molar heat capacity by setting is: (391.4 K) 710 ± 14 J/K/mol; (401.3 K) 721.1 ± 14 J/K/mol.

For `CCCCCCc1ccccc1` [hexylbenzene], the molar heat capacity (332.2 K) is listed as 323.1 ± 6.5 J/K/mol; the molar heat capacity (342.1 K) came to 328.8 ± 6.6 J/K/mol; the molar heat capacity (354.9 K) stood at 334.1 ± 6.7 J/K/mol; the molar heat capacity (361.8 K) is given as 340.1 ± 6.8 J/K/mol; the molar heat capacity (371.6 K) stood at 347.9 ± 7 J/K/mol; the molar heat capacity (381.5 K) was 353.8 ± 7.1 J/K/mol. Moreover, the molar heat capacity (391.4 K) is recorded as 359.1 ± 7.2 J/K/mol and the molar heat capacity (401.3 K) worked out at 366.1 ± 7.3 J/K/mol.

`CCc1ccccc1` [ethylbenzene]: the molar heat capacity by setting is: (332.2 K) 198.7 ± 4 J/K/mol; (342.1 K) 202.4 ± 4 J/K/mol; (354.9 K) 205.9 ± 4.1 J/K/mol; (361.8 K) 210.2 ± 4.2 J/K/mol; (371.6 K) 213.6 ± 4.3 J/K/mol; (381.5 K) 218 ± 4.4 J/K/mol. In addition, under “391.4 K”, the molar heat capacity came out at 221.7 ± 4.4 J/K/mol.

Regarding `CC(C)(C)c1ccccc1` [(1,1-dimethylethyl)benzene], the molar heat capacity is listed as 259 ± 5.2 J/K/mol (332.2 K); 263.1 ± 5.3 J/K/mol (342.1 K); 268.3 ± 5.4 J/K/mol (354.9 K); 272.7 ± 5.5 J/K/mol (361.8 K); 278.4 ± 5.6 J/K/mol (371.6 K); 283 ± 5.7 J/K/mol (381.5 K). Moreover, the molar heat capacity (391.4 K) stood at 288.8 ± 5.8 J/K/mol and the molar heat capacity (401.3 K) stood at 293.5 ± 5.9 J/K/mol.
